The data set is described as follows: amounts of β-lactam antibiotic, β-lactamase inhibitor (C18 reverse-phase LC, UV-VIS) and aminoglycoside (HPLC-ELSD) in solution over time. It is filed as physicochemical.

In the case of `CO/N=C(\C(=O)N[C@@H]1C(=O)N2C(C(=O)O)=C(CSc3nc(C)c(CC(=O)O)s3)CS[C@H]12)c1csc(N)n1` [Cefodizime sodium], the “amount of component as percentage with respect to the amount at the initial time” value reads like this: (Example 12: freeze-dried cefodizime sodium, citrate pH 6.75, 7 days 0° C., in 100 mL 5% fructose + etimicin sulfate 200 mg, Time 0 h) 99.01%; (Example 12: freeze-dried cefodizime sodium, citrate pH 6.75, 7 days 0° C., in 100 mL 5% fructose + etimicin sulfate 200 mg, Time 1 h) 103.8%; (Example 12: freeze-dried cefodizime sodium, citrate pH 6.75, 7 days 0° C., in 100 mL 5% fructose + etimicin sulfate 200 mg, Time 2 h) 98.33%; (Example 12: freeze-dried cefodizime sodium, citrate pH 6.75, 7 days 0° C., in 100 mL 5% fructose + etimicin sulfate 200 mg, Time 4 h) 98.99%; (Example 12: freeze-dried cefodizime sodium, citrate pH 6.75, 7 days 0° C., in 100 mL 5% fructose + etimicin sulfate 200 mg, Time 6 h) 97.89%; (Example 12: freeze-dried cefodizime sodium, citrate pH 6.75, 7 days 0° C., in 100 mL 5% fructose + etimicin sulfate 200 mg, Time 8 h) 92.52%. The “amount of component as percentage with respect to the amount at the initial time” value is 99.01% (Example 18: cefodizime sodium 1 g, etimicin sulfate 200 mg, citrate pH 6.75, 200 mL water, room temperature, Time 0 h); 103.8% (Example 18: cefodizime sodium 1 g, etimicin sulfate 200 mg, citrate pH 6.75, 200 mL water, room temperature, Time 1 h); 98.33% (Example 18: cefodizime sodium 1 g, etimicin sulfate 200 mg, citrate pH 6.75, 200 mL water, room temperature, Time 2 h); 98.99% (Example 18: cefodizime sodium 1 g, etimicin sulfate 200 mg, citrate pH 6.75, 200 mL water, room temperature, Time 4 h); 97.89% (Example 18: cefodizime sodium 1 g, etimicin sulfate 200 mg, citrate pH 6.75, 200 mL water, room temperature, Time 6 h); 92.52% (Example 18: cefodizime sodium 1 g, etimicin sulfate 200 mg, citrate pH 6.75, 200 mL water, room temperature, Time 8 h).

The values above are taken from patent US20090156518A1, “STABLE PHARMACEUTICAL COMPOSITION COMPRISING BETA-LACTAM ANTIBIOTIC AND BUFFER” (priority 2006, published 2009).
